Key:
Daporinad = compound: O=C(/C=C/c1cccnc1)NCCCCC1CCN(C(=O)c2ccccc2)CC1 [Daporinad]; assay: relative viability (nuclei count vs DMSO), 5 days (fraction); higher = more cells survive
Summary of the method: (§1)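 Hoechst staining, done together with fixation and permeabilisation, marked nuclei for 4× imaging and MetaXpress counting. This followed 5 days without medium change after lung cancer cell lines, kept overnight at 37 °C in 1536-well plates, were pinned with five library-drug doses (not always all listed) spaced by √10 on vehicle-anchored plates. Viability is the ratio of treated-well to vehicle-well nuclei, expressed as a median across plates. Plates passed only at control CV below 25% with at least one doubling.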

R406 = compound: COc1cc(Nc2ncc(F)c(Nc3ccc4c(n3)NC(=O)C(C)(C)O4)n2)cc(OC)c1OC [R406]; assay: as above
Summary of the method: as §1

Cell Line	relative viability (Daporinad; 0.0005 µM)	relative viability (Daporinad; 0.001581 µM)	relative viability (Daporinad; 0.005 µM)	relative viability (Daporinad; 0.01581 µM)	relative viability (R406; 0.08 µM)	relative viability (R406; 0.253 µM)	relative viability (R406; 0.8 µM)	relative viability (R406; 2.53 µM)	relative viability (R406; 8 µM)
201T	0.962	1.04	0.972	1.01	0.929	1.02	1.06	0.844	0.67
A549	1.03	1.05	0.944	0.903	0.898	1.02	1.1	0.857	0.518
A-427	0.952	1.12	0.982	0.602	0.974	1.23	1.14	0.708	0.639
ABC-1	0.802	0.934	0.832	0.659	0.761	1.06	0.895	0.619	0.535
BEN	0.962	1.04	0.969	1.31	0.862	1.24	1.03	1.05	0.832
CAL-12T	0.904	1.03	0.735	0.269	0.993	1.22	1.12	0.511	0.434
COR-L23	1.02	1.04	0.908	0.275	0.953	1.17	1.16	0.901	0.592
COR-L 105	0.906	0.976	0.991	0.969	0.911	1.05	1.12	0.666	0.418
Calu-6	0.955	1.04	0.917	0.533	0.98	1.06	1.11	0.724	0.503
ChaGo-K-1	1.03	0.86	0.94	0.509	0.948	1.12	0.974	0.944	0.73
EBC-1	0.829	1.06	1.03	1.08	0.99	1.14	1.25	0.877	0.481
EKVX	0.933	0.95	0.974	1.14	0.928	1.12	1.1	0.855	0.722
EMC-BAC-2	1.01	1.09	0.766	0.487	0.917	1.13	1.08	0.849	0.405
EPLC-272H	0.856	1.04	1.06	1.04	0.919	0.975	1.07	0.438	0.379
H3255	0.842	1	1.06	1.19	0.943	1.16	0.989	0.859	0.873
HARA	0.903	0.958	0.964	0.583	0.975	0.965	1.1	0.676	0.365
HCC-15	0.967	1.15	1.14	1.05	0.919	1.23	1.17	0.81	0.629
HCC-44	0.992	0.993	0.97	1	0.979	0.976	0.94	0.928	0.711
HCC-78	0.81	0.938	1.06	1.12	0.953	1.08	1.06	0.708	0.48
HCC-366	1.04	1.01	1.02	1.03	1	1.1	1.03	0.432	0.565
HCC-827	1.02	1.06	1.03	1.1	1.09	1.07	1.1	0.903	0.672
HOP-62	0.94	1.08	1.03	0.491	0.998	1.16	0.97	1.04	1.09
IA-LM	0.888	0.896	0.968	0.859	1.07	1.19	0.957	1.05	0.913
LC-2-ad	0.934	1.1	1.03	0.957	0.965	0.987	1.04	0.539	0.312
LCLC-97TM1	0.948	1.15	1.07	0.941	0.885	1.18	0.964	0.804	0.632

Cell Line	relative viability (Daporinad; 0.0005 µM)	relative viability (Daporinad; 0.001581 µM)	relative viability (Daporinad; 0.005 µM)	relative viability (Daporinad; 0.01581 µM)	relative viability (R406; 0.08 µM)	relative viability (R406; 0.253 µM)	relative viability (R406; 0.8 µM)	relative viability (R406; 2.53 µM)	relative viability (R406; 8 µM)
LCLC-103H	0.928	1.16	1.04	1	0.889	1.04	0.952	0.84	0.579
LK-2	0.909	1.18	0.781	0.283	0.86	1.22	1.09	0.682	0.431
LOU-NH91	0.996	1.05	1.14	1.24	0.916	0.963	0.928	0.512	0.576
LU99A	0.975	1.09	1.08	0.966	0.984	0.983	1.22	0.796	0.824
LXF-289	0.959	1.1	1.09	1.1	0.976	1.06	1.04	0.956	0.845
NCI-H23	1.03	1.06	0.973	0.53	0.948	1.21	1.1	0.264	0.252
NCI-H322M	0.906	1.05	0.936	0.751	0.889	0.922	0.939	0.542	0.405
NCI-H358	0.877	0.929	1.03	1.06	0.935	1.04	1.03	0.339	0.246
NCI-H441	0.898	1.13	1.18	1.07	0.903	1.16	1.31	0.424	0.611
NCI-H460	0.996	1.02	0.953	1.02	0.965	1.11	1.09	0.966	0.766
NCI-H520	1.14	0.804	0.286	0.238	0.869	1.12	1.12	0.559	0.298
NCI-H522	1.04	0.931	1.06	0.738	0.889	1.1	1.13	0.78	0.617
NCI-H596	0.911	1.02	0.991	0.638	0.959	1.22	1.04	0.663	0.397
NCI-H647	0.914	1.11	1.07	1.05	0.943	1.13	1.1	0.538	0.233
NCI-H650	0.899	0.953	1.05	1.01	0.895	1.12	1	0.791	0.653
NCI-H661	1.01	0.982	0.72	0.605	0.888	0.947	1.01	0.967	0.649
NCI-H727	0.931	1.06	1.06	0.884	0.817	0.888	0.964	0.806	0.668
NCI-H838	0.999	1.03	1.04	0.657	0.911	1.08	1.11	0.544	0.214
NCI-H1299	1.01	1.04	1.04	1.04	1	1.08	1.07	1.06	0.744
NCI-H1355	0.968	1.13	1.14	1.03	0.977	1.13	1.11	0.626	0.61
NCI-H1395	0.88	1.09	1.09	0.969	1.01	1.05	1.02	0.713	0.635
NCI-H1437	0.891	1.01	1.01	0.99	0.994	1.08	1.06	0.884	0.622
NCI-H1563	1.07	0.995	0.983	0.904	0.904	0.971	1.01	0.928	0.539
NCI-H1623	0.822	1.15	0.957	1.05	0.908	1.05	1.11	0.818	0.893
NCI-H1648	0.836	0.933	0.9	0.835	0.759	0.614	1.03	0.795	0.786

Cell Line	relative viability (Daporinad; 0.0005 µM)	relative viability (Daporinad; 0.001581 µM)	relative viability (Daporinad; 0.005 µM)	relative viability (Daporinad; 0.01581 µM)	relative viability (R406; 0.08 µM)	relative viability (R406; 0.253 µM)	relative viability (R406; 0.8 µM)	relative viability (R406; 2.53 µM)	relative viability (R406; 8 µM)
NCI-H1650	0.981	1.05	1.07	0.848	1.02	1.23	1.06	0.212	0.155
NCI-H1651	1.01	1.03	1.05	0.874	0.926	1.1	1.05	0.899	0.667
NCI-H1666	0.891	1.17	1.05	1	1	1.02	1.05	1.03	0.876
NCI-H1703	1.03	1.2	1.2	0.934	0.966	0.924	1.21	0.238	0.172
NCI-H1734	1.04	1.14	0.975	0.453	0.985	1.18	1.16	0.269	0.418
NCI-H1755	0.966	0.989	1.03	1.02	0.947	1.05	1.13	0.838	0.796
NCI-H1792	0.828	1.17	1.11	1.15	1	1.07	1.17	0.251	0.386
NCI-H1793	0.801	0.959	0.984	1.09	0.731	1.17	1.13	0.159	0.279
NCI-H1915	1.01	1.13	1.07	1.03	1.01	1.15	1.05	0.667	0.835
NCI-H1944	0.921	1.05	1.07	1.02	0.932	1.08	0.986	0.858	0.783
NCI-H1975	1.05	0.916	1.01	0.968	0.848	1.03	1.02	0.479	0.385
NCI-H1993	0.881	0.99	1.05	1.15	1.01	1.09	0.921	0.658	0.599
NCI-H2009	0.918	1.08	1.07	0.905	0.975	1.04	1.11	0.853	0.376
NCI-H2023	0.982	1.15	1.09	0.987	0.902	1.05	1.12	0.388	0.241
NCI-H2085	0.984	1.02	1.08	1.18	0.99	1.06	1.1	0.823	0.736
NCI-H2087	0.906	1.16	1.22	1.02	1.05	1.16	1.23	0.428	0.851
NCI-H2126	1.02	0.978	1.03	1.09	1.05	1.04	1.07	0.918	0.849
NCI-H2170	0.923	1.06	1.03	1.06	0.962	0.972	1.06	0.729	0.892
NCI-H2228	0.925	0.846	1.24	0.973	1.1	1.3	1.15	0.385	0.298
NCI-H2342	1.08	0.839	0.952	0.974	1	0.964	1.01	0.916	0.93
NCI-H2347	1.13	1.13	1.02	1.09	1.06	1.18	1.11	0.935	0.796
NCI-H2405	1.08	1.12	1.02	0.509	0.98	1.11	1.06	0.746	0.382
NCI-H3122	0.955	1	1.05	0.984	0.948	1	0.989	0.945	0.977
PC-3 [JPC-3]	1.02	1.1	1.14	1.12	1.04	1.17	1.04	0.819	0.647

From the supplement of paper PMC10307832
